Measurements reported in US11066414B2, “Cot modulators and methods of use thereof” (Gilead Sciences, Inc., priority 2015, dated 2021).
Where two headings read alike, the source gives them in different places.

Columns and labels:
[1] = system: TNFα; test: Cot Monocyte TNFα Cell Based Assay
[2] = target: Human Cot (Homo sapiens (Human), UniProt P41279); test: High Throughput Cot Biochemical Assay
[3] = Homo sapiens, Monocyte, read-out: EC50 TNF, LPS-stimulated human monocytes, TNFα
[4] = IC50 HTRF, Cot HTRF (TR-FRET) biochemical assay
[5] = Homo sapiens, Monocyte, read-out: EC50 TNF, LPS-stimulated human monocytes, TNFα TR-FRET
[6] = IC50 HTRF, Cot HTRF (TR-FRET KinEASE) biochemical assay, 400 μM ATP

Sequence of Human Cot (P41279 30-397): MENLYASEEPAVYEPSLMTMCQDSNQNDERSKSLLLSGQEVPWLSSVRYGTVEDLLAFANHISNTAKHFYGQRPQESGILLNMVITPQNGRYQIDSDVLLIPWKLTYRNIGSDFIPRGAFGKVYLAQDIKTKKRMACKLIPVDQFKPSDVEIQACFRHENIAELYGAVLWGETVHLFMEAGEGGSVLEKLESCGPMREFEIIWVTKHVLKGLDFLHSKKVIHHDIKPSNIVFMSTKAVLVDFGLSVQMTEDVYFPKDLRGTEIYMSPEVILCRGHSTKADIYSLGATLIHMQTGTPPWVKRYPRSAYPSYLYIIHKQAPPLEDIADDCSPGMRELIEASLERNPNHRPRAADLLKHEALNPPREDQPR

SMILES	EC50 [1, 3] [µM]	IC50 [2, 4] [µM]	also measured
Cn1ccc2c([C@H](Nc3cc(Cl)c4ncc(C#N)c(NCC(C)(C)C)c4c3)c3cn(C45CC(C4)C5)nn3)cccc21 [Example 735, (S)-6-(((1-(bicyclo[1.1.1]pentan-1-yl)-1H-1,2,3-triazol-4-yl)(1-methyl-1H-indol-4-yl)methyl)amino)-8-chloro-4-(neopentylamino)quinoline-3-carbonitrile]	0.478	0.047	
Cc1nc(F)ccc1[C@H](Nc1cc(Cl)c2ncc(C#N)c(NCC3(C(F)(F)F)CCC3)c2c1)c1cn(C2(C(F)F)CC2)nn1 [Example 731, (S)-8-chloro-6-(((1-(1-(difluoromethyl)cyclopropyl)-1H-1,2,3-triazol-4-yl)(6-fluoro-2-methylpyridin-3-yl)methyl)amino)-4-(((1-(trifluoromethyl)cyclobutyl)-methyl)amino)quinoline-3-carbonitrile]	0.179	0.011	
CC(C)(C)CNc1c(C#N)cnc2c(C#N)cc(N[C@H](c3cn(C45CC(C4)C5)nn3)c3cccc4nc(C(F)F)ccc34)cc12 [Example 901, (S)-6-(((1-(bicyclo[1.1.1]pentan-1-yl)-1H-1,2,3-triazol-4-yl)(2-(difluoromethyl)quinolin-5-yl)methyl)amino)-4-(neopentylamino)quinoline-3,8-dicarbonitrile]			EC50 [1, 5]: 1 µM; IC50 [2, 6]: 0.484 µM
CN1Cc2c(cccc2[C@H](Nc2cc(Cl)c3ncc(C#N)c(NCC(C)(C)C)c3c2)c2cn(C3(C(F)F)CC3)nn2)C1=O [Example 737, (S)-8-chloro-6-(((1-(1-(difluoromethyl)cyclopropyl)-1H-1,2,3-triazol-4-yl)(2-methyl-1-oxoisoindolin-4-yl)methyl)amino)-4-(neopentylamino)quinoline-3-carbonitrile]	0.091	0.003	
Cc1nc(F)ccc1[C@H](Nc1cc(Cl)c2ncc(C#N)c(N[C@@H](c3ccccc3)C3CC3)c2c1)c1cn(C2(C(F)(F)F)CC2)nn1 [Example 611, 8-chloro-4-(((R)-cyclopropyl(phenyl)methyl)-amino)-6-(((S)-(6-fluoro-2-methylpyridin-3-yl)(1-(1-(trifluoromethyl)cyclopropyl)-1H-1,2,3-triazol-4-yl)methyl)amino)quinoline-3-carbonitrile]	0.229	0.02	
CC(C)(C)CNc1c(C#N)cnc2c(C#N)cc(N[C@H](c3cn([C@@H]4C[C@@H]4F)nn3)c3cccc4ncccc34)cc12 [Example 899, 6-(((S)-(1-((1R,2S)-2-fluorocyclopropyl)-1H-1,2,3-triazol-4-yl)(quinolin-5-yl)methyl)amino)-4-(neopentylamino)quinoline-3,8-dicarbonitrile]			EC50 [1, 5]: 0.029 µM; IC50 [2, 6]: 0.002 µM
COc1ccc2c([C@H](Nc3cc(C#N)c4ncc(C#N)c(NCC(C)(C)C)c4c3)c3cn(C4(C(F)(F)F)CC4)nn3)cccc2n1 [Example 811, (S)-6-(((2-methoxyquinolin-5-yl)(1-(1-(trifluoromethyl)cyclopropyl)-1H-1,2,3-triazol-4-yl)methyl)amino)-4-(neopentylamino)quinoline-3,8-dicarbonitrile]			EC50 [1, 5]: 0.333 µM; IC50 [2, 6]: 0.011 µM
CC(C)(C)CNc1c(C#N)cnc2c(C#N)cc(N[C@H](c3cn(C4(C(F)(F)F)CC4)nn3)c3cccc4c(=O)[nH]ccc34)cc12 [Example 700, (S)-4-(neopentylamino)-6-(((1-oxo-1,2-dihydroisoquinolin-5-yl)(4-(1-1-(trifluoromethyl)-cyclopropyl)-1H-1,2,3-triazol-4-yl)methyl)amino)quinoline-3,8-dicarbonitrile]			EC50 ([1]; read-out: EC50 TNF, LPS-stimulated human monocytes, TNFα): 0.179 µM; IC50 ([2]; read-out: IC50 HTRF, Cot HTRF (TR-FRET) biochemical assay): 0.002 µM
CC(C)n1cc([C@@H](Nc2cc(Cl)c3ncc(C#N)c(Nc4ccc(F)c(Cl)c4)c3c2)C2=CCOCC2)nn1 [Example 244, (S)-8-chloro-4-((3-chloro-4-fluorophenyl)amino)-6-(((3,6-dihydro-2H-pyran-4-yl)(1-isopropyl-1H-1,2,3-triazol-4-yl)methyl)amino)quinoline-3-carbonitrile]	0.328	0.004	
Cc1nc(F)ccc1[C@H](Nc1cc(Cl)c2ncc(C#N)c(NCC(C)(C)C)c2c1F)c1cn(C2(C(F)F)CC2)nn1 [Example 983, (S)-8-chloro-6-(((1-(1-(difluoromethyl)cyclopropyl)-1H-1,2,3-triazol-4-yl)(6-fluoro-2-methylpyridin-3-yl)methyl)amino)-5-fluoro-4-(neopentylamino)quinoline-3-carbonitrile]			EC50 [1, 5]: 1 µM; IC50 [2, 6]: 9.64 µM
COc1c([C@@H](Nc2cc(C#N)c3ncc(C#N)c(NCC(C)(C)C)c3c2)c2ccc(F)nc2C)nnn1C1(C(F)F)CC1 [Example 964, (S)-6-(((1-(1-(difluoromethyl)cyclopropyl)-5-methoxy-1H-1,2,3-triazol-4-yl)(6-fluoro-2-methylpyridin-3-yl)methyl)amino)-4-(neopentylamino)quinoline-3,8-dicarbonitrile]			EC50 [1, 5]: 0.105 µM; IC50 [2, 6]: 0.003 µM
Cc1ncccc1[C@H](Nc1cc(Cl)c2ncc(C#N)c(NCC(C)(C)C)c2c1)c1cn(C2CC2)nn1 [Example 131, (S)-8-chloro-6-(((1-cyclopropyl-1H-1,2,3-triazol-4-yl)(2-methylpyridin-3-yl)methyl)amino)-4-(neopentyl-amino)quinoline-3-carbonitrile]	0.049	0.002	
CC[C@@H](Nc1c(C#N)cnc2c(Cl)cc(N[C@H](c3cn(C4(C(F)F)CC4)nn3)c3ccc(F)nc3C)cc12)c1ccccc1 [Example 723, 8-chloro-6-(((S)-(1-(1-(difluoromethyl)cyclopropyl)-1H-1,2,3-triazol-4-yl)(6-fluoro-2-methylpyridin-3-yl)methyl)amino)-4-(((R)-1-phenyl-propyl)amino)quinoline-3-carbonitrile]	0.084	0.004	

Second part, led by results:

EC50 [1, 3] [µM]	IC50 [2, 4] [µM]	SMILES	also measured
0.096	0.003	CC(C)(C)CNc1c(C#N)cnc2c(Cl)cc(N[C@H](c3cn(C4(C(F)(F)F)CC4)nn3)c3cccc4ccncc34)cc12 [Example 533, (S)-8-chloro-6-((isoquinolin-8-yl(1-(1-(trifluoromethyl)cyclopropyl)-1H-1,2,3-triazol-4-yl)methyl)amino)-4-(neopentyl-amino)quinoline-3-carbonitrile]	
0.078	0.004	CC(C)(C)CNc1c(C#N)cnc2c(C#N)cc(N[C@H](c3cn(C4(C(F)(F)F)CC4)nn3)c3cccc4[nH]ncc34)cc12 [Example 472, (S)-6-(((1H-indazol-4-yl)(1-(1-(trifluoro-methyl)cyclopropyl)-1H-1,2,3-triazol-4-yl)methyl)amino)-4-(neopentylamino)-quinoline-3,8-dicarbonitrile]	
0.057	0.003	Cc1nc(F)ccc1[C@H](Nc1cc(C#N)c2ncc(C#N)c(NCC(C)(C)C)c2c1)c1cn(C(C)(C)C(F)F)nn1 [Example 590, (S)-6-(((1-(1,1-difluoro-2-methylpropan-2-yl)-1H-1,2,3-triazol-4-yl)(6-fluoro-2-methylpyridin-3-yl)methyl)amino)-4-(neopentylamino)-quinoline-3,8-dicarbonitrile]	
0.131	0.005	Cn1nccc1[C@H](Nc1cc(C#N)c2ncc(C#N)c(NCC(C)(C)C)c2c1)c1cn(C2(C(F)(F)F)CC2)nn1 [Example 678, (S)-6-(((1-methyl-1H-pyrazol-5-yl)(1-(1-(trifluoromethyl)cyclopropyl)-1H-1,2,3-triazol-4-yl)methyl)amino)-4-(neopentylamino)quinoline-3,8-dicarbonitrile]	
